One assay deals with T1, recombinant human BCAT1 (Homo sapiens, UniProt P54687).
T1 construct: purchased Abcam
T1 sequence (P54687 1-386): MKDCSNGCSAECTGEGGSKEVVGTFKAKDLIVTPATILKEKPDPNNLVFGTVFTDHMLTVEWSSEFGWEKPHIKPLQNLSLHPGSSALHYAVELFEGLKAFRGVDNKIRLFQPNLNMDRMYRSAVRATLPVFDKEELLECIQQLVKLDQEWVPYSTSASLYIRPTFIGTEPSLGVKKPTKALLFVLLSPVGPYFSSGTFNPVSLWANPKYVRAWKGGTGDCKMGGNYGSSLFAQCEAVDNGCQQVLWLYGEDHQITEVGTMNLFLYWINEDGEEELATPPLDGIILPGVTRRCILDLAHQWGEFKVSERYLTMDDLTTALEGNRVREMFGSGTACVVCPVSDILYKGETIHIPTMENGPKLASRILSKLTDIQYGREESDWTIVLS
Kind of assay: BCAT1 aminotransferase enzymatic assay (continuous fluorometric). Type of assay: biochemical. As to conditions: 100 ng recombinant protein. The text has this:
To gain more insights into the role of BCAT enzymes in macrophages, we set out to investigate these in human monocyte-derived macrophages (hMDMs) by subjecting these cells to RNA-sequencing (Fig. 1a). […] To examine the role of BCAT1 in macrophage metabolism and inflammatory diseases, we identified a novel BCAT1 inhibitor, ERG240, using molecular modelling approaches based on the X-ray crystal structures of BCAT1 (ref. [22]). ERG240 is a water-soluble structural analogue of leucine (Fig. 1b). Its ability to suppress the BCAT1 aminotransferase activity was measured in a continuous fluorometric assay (ref. [23] and see Supplementary Methods). […]
Figure 1 BCAT1 expression and inhibition in human macrophages. […] (d) Relative expression of IRG1, HIF1A and IL1B measured by qRT-PCR in control, ERG240-treated (20 mM, 3 h), LPS treated (100 ng ml^−1, 3 h), and LPS+ERG240 treated (LPS, 100 ng ml^−1; ERG240, 20 mM for 3 h) hMDMs. ns, non-significant. […]
Finall y, th e libraries were size selected using AM Pure XP Beads (Beckman Coulter) purified and their quality was checked using Agilent 2100 Bioanalyzer. Samples were randomized to avoid batch effects and multiplexed libraries wer e run on a single lan e (6 samples/lane) of the HiSeq 2500 platform (Illumina) to generate 100bp paired-end reads. […]
respectivel y. RNA-seq reads were aligned to human (hg19) or mouse (mm10) reference genomes using tophat2. […]

The next assay addresses T2, recombinant human BCAT2 (Homo sapiens, UniProt O15382).
T2 construct: purchased Abcam
T2 sequence (O15382 28-392): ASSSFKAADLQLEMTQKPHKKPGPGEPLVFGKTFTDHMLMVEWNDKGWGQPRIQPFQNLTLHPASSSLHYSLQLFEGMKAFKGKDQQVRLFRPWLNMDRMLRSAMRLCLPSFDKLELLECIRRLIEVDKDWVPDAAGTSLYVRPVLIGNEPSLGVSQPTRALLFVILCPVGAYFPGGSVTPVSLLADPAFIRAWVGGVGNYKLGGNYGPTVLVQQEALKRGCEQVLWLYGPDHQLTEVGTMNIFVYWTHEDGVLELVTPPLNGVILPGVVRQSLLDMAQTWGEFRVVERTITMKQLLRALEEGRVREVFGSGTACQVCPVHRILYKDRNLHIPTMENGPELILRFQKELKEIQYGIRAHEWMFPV
Kind of assay: BCAT2 aminotransferase enzymatic assay (continuous fluorometric). It is filed as biochemical.

The values below come from publication PMC5510229, “BCAT1 controls metabolic reprogramming in activated human macrophages and is associated with inflammatory diseases” (Nature Communications, 2017).

pIC50: −log10 of the molar value.

With `CC(=O)C(C)CCC(=O)O` (centres unmarked) [ERG240], the pIC50 on recombinant human BCAT1 was 9.00 to 10.00. For the same molecule, at recombinant human BCAT2, the “inhibition of BCAT2” value is recorded as “no inhibition”.

As usually defined, the pIC50 is −log10 of the IC50, conventionally taken in molar units.
